pIC50, pKi: −log10 of the molar value.
Assays:
[1] = molecular target: T1, cloned human 5HT2B receptor (Homo sapiens, UniProt P41595); assay: 5HT2B receptor binding assay, [125I]DOI; settings: CHO membranes
T1 construct: expressed in transfected cells; host or cells: CHO cells
Method: For the 5HT2B receptor binding assay, [^125I](±)[…] (DOI) (0.2 nM) was incubated for 15 min at 37° C. with membranes prepared from Chinese hamster ovary cells heterologously expressing the cloned human 5HT2B receptor according to the method of Choi et al., 1994, FEBS Lett 352:393-399. Various concentrations of test compound were added and bound radioactivity was determined by scintillation counting. Non-specific binding was determined in the presence of 1.0 μM unlabeled DOI. The Ki value for the test compound was determined using standard methods.

[2] = molecular target: T2, cloned human 5HT2C receptor (Homo sapiens, UniProt P28335); assay: 5HT2C receptor binding assay, [3H]mesulergine; settings: CHO membranes
T2 construct: expressed in transfected cells; host or cells: CHO cells
T2 sequence (P28335 33-458): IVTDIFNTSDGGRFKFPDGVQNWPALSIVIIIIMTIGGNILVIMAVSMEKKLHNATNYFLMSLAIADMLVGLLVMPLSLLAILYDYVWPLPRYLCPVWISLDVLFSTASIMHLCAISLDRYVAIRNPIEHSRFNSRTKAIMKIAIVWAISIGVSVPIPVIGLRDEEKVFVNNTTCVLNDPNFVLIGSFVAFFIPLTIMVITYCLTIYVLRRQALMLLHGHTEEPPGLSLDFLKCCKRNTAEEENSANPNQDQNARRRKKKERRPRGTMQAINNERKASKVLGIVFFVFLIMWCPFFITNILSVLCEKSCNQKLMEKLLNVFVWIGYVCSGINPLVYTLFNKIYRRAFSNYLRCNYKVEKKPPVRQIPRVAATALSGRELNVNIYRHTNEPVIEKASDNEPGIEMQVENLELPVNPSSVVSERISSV
Method: For the 5HT2C receptor binding assay, [^3H]mesulergine (1.0 nM) was incubated for 60 min at 37° C. with membranes prepared from Chinese hamster ovary cells heterologously expressing the cloned human 5-HT2C receptor according to the method of Stam et al., 1994, Eur. J. Pharmacol. 269:339-348. Various concentrations of test compound were added and bound radioactivity was determined by scintillation counting. Non-specific binding was determined in the presence of 10 μM RS102221. The Ki value for the test compound was determined using standard methods.

[3] = molecular target: T3, cloned human 5HT2A receptor (Homo sapiens, UniProt P28223); assay: 5HT2A receptor binding assay, [3H]ketanserin; settings: HEK-293 membranes
T3 construct: expressed in transfected cells; host or cells: HEK-293 cells
Method: For the 5HT2A receptor binding assay, [^3H]ketanserin (0.5 nM) was incubated for 60 min at 22° C. with membranes prepared from HEK-293 cells heterologously expressing the cloned human 5-HT2A receptor according to the method of Bonhaus et al., 1995, Brit. J. Pharmacol. 115:622-628. Various concentrations of test compound were added and bound radioactivity was determined by scintillation counting. Non-specific binding was determined in the presence of 1.0 μM unlabeled ketanserin. The Ki value for the test compound was determined using standard methods.

[4] = molecular target: T1, cloned human 5HT2B receptor; assay: 5HT2B functional assay, intracellular Ca2+ in CHO cells; format: cell-based
Method: Agonist effects at the 5HT2B receptor were assessed by incubation at 22° C. of a series of concentrations of test compound with intact CHO cells heterologously expressing the cloned human 5HT2B receptor and measuring intracellular [Ca^2+] by fluorimetry according to the method of Porter et al., 1991, Brit. J. Pharmacol. 128:13-20. Antagonist effects were assessed by the ability of a series of concentrations of test compound to block the increase in intracellular [Ca^2+] that occurred in the presence of 0.3 nM serotonin under the same conditions. EC50 and IC50 values were determined using standard methods.

[5] = molecular target: T4, cloned human NE transporter (hNET) (Homo sapiens, UniProt P23975); assay: NE transporter binding assay, [3H]nisoxetine; settings: membranes of CHO cells expressing hNET; read-out: NET Ki
T4 construct: expressed in transfected cells; host or cells: CHO cells
Method: Protocols. For the NE transporter binding assay, [^3H]nisoxetine (1.0 nM) was incubated with various concentrations of test compounds for 2 hours at 4° C. with membranes prepared from Chinese hamster ovary cells (CHO) cells heterologously expressing the cloned human NE transporter (hNET). Bound radioactivity was determined by scintillation spectroscopy.

[6] = molecular target: NET (rat hypothalamus synaptosomes) (Rattus norvegicus, UniProt Q63380); assay: NE uptake inhibition assay, [3H]norepinephrine into synaptosomes; format: biochemical; settings: 20 min 37° C., read-out: NET IC50 (norepinephrine reuptake inhibition)
Sequence of NET (rat hypothalamus synaptosomes) (Q63380 1-617): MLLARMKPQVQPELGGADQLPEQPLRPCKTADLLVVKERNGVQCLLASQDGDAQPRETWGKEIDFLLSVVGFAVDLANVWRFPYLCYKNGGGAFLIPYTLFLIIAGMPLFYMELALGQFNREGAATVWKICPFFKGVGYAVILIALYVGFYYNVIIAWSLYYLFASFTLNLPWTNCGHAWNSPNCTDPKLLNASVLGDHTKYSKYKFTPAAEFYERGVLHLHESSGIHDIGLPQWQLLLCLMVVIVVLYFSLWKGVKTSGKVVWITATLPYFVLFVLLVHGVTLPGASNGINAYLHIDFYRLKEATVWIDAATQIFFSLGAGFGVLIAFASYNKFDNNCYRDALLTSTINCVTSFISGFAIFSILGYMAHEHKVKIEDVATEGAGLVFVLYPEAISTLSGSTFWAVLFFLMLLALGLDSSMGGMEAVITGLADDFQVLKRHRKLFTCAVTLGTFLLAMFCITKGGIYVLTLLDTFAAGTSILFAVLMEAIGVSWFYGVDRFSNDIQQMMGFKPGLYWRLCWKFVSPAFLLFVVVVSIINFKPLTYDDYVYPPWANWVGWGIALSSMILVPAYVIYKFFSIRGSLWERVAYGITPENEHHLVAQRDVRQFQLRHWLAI

T1 sequence (P41595 whole entry): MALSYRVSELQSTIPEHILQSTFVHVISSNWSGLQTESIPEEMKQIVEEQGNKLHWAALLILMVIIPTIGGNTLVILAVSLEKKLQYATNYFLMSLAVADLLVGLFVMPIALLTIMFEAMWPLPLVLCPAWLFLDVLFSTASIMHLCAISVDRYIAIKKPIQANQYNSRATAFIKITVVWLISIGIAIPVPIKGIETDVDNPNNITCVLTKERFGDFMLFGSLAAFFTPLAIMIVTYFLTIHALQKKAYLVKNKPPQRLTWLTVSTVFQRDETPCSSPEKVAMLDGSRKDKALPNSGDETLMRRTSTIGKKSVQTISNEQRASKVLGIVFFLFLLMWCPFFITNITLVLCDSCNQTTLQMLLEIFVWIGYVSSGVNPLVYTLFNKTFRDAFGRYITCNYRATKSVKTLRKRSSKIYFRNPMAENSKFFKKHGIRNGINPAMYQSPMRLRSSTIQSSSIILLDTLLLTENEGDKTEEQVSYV
T4 sequence (P23975 whole entry): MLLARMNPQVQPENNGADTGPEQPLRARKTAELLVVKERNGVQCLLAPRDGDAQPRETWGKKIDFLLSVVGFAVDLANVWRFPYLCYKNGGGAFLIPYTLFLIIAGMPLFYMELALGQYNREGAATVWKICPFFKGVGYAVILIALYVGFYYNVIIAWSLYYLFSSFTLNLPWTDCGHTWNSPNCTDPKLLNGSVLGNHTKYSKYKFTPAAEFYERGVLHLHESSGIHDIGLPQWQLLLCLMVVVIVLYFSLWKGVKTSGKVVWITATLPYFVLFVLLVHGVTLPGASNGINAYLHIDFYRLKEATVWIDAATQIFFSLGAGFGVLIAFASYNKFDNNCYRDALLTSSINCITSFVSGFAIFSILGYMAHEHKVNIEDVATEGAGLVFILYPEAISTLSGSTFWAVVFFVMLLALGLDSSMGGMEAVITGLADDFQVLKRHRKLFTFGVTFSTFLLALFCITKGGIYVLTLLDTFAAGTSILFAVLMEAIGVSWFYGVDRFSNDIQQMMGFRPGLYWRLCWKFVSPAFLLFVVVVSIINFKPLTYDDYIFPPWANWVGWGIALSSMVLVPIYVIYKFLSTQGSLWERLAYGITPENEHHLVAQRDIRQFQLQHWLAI
T3 sequence (P28223 whole entry): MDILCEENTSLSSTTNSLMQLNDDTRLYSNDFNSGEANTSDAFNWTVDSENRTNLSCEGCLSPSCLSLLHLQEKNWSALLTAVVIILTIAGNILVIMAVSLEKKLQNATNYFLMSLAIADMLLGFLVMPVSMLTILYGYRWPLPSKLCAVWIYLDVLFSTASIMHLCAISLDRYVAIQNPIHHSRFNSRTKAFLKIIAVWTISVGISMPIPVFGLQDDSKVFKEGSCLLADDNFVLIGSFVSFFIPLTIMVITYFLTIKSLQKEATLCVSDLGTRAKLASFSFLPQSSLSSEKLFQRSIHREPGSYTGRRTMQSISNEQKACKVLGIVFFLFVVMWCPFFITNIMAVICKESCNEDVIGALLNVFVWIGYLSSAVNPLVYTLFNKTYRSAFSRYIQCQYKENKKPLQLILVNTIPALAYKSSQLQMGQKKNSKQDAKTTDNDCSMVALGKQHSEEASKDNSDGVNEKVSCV

`Cc1cccc2c1Oc1ccccc1C1(O)CCN(C)CC21` (single isomer, unassigned; (+)) [(+)-beloxepin] was tested, and the pKi [1] was 6.77, the pKi [2] was 7.08 and the pKi [3] was 7.01. The “5HT2B functional activity type” value [4] was “antagonist”, the pIC50 ([4]; antagonist mode, vs 0.3 nM serotonin) was 6.16 and the pKi [5] was 5.53. For the same compound, the pIC50 [6] was 5.92.
